Values quoted from earlier work, collected in patent US20250160636A1, “Mitigating Ocular Toxicity” (GlaxoSmithKline Intellectual Property Development Limited, priority 2022, published 2025).
Read-outs that look alike come from different tables or passages of the source.

Conditions: for Vision disorder: n = 255, photopsia

CN(C)C/C=C/C(=O)Nc1cc2c(Nc3ccc(F)c(Cl)c3)ncnc2cc1O[C@H]1CCOC1 [Afatinib]
Conjunctivitis (n = 229): 11%
Keratitis (n = 3865 patients): 0.8%
grade III event (number of events, n = 3865 patients): 1

CC(C)C[C@H](NC(=O)[C@H](Cc1ccccc1)NC(=O)c1cnccn1)B(O)O [Bortezomib]
Case reports associated with (case reports): Case reports associated with eyelid chalazia.
Label mentions (ocular toxicity issues) (label): Label mentions diplopia, blurred vision, conjunctival infection, irritation.

Cc1cc(Nc2ncc(Cl)c(Nc3ccccc3S(=O)(=O)C(C)C)n2)c(OC(C)C)cc1C1CCNCC1 [Ceritinib]
Vision disorder (comprised of vision impairment, blurred vision, accommodation disorder, presbyopia, or reduced visual acuity): Vision disorder 9% (comprised of vision impairment, blurred vision, photopsia,

C[C@@H](Oc1cc(-c2cnn(C3CCNCC3)c2)cnc1N)c1c(Cl)ccc(F)c1Cl [Crizotinib]
Vision disorder (includes diplopia, photophobia, vision blurred, visual field defect, visual impairment, vitreous floaters, visual brightness, and visual acuity reduced): Vision disorder 64% (Includes diplopia, photopsia, photophobia, vision blurred,

CC(C)(C)c1nc(-c2cccc(NS(=O)(=O)c3c(F)cccc3F)c2F)c(-c2ccnc(N)n2)s1 [Dabrafenib]
Can cause (ocular toxicity issue) (in vivo): cystoid macula edema
Uveitis/Iritis (n = 586): 1%

Cc1nc(Nc2ncc(C(=O)Nc3c(C)cccc3Cl)s2)cc(N2CCN(CCO)CC2)n1 [Dasatinib]
Conjunctivitis (cohort not given): 0.1-1%
Visual disorder (visual disturbance, vision blurred, decreased visual acuity) or dry eye (in vivo): 1-10%

C#Cc1cccc(Nc2ncnc3cc(OCCOC)c(OCCOC)cc23)c1 [Erlotinib]
Reported Conjunctivitis (n = 84): 18%
Conjunctivitis (n = 485): 12%
Keratoconjunctivitis Sicca (n = 485): n = 485 and Keratoconjunctivitis Sicca 12% n = 485. Mentions of corneal
Conjunctivitis Grade III (number of events, n = 485): 1
pooled incidence of ocular disorders (one pancreatic cancer study): 12.8%
pooled incidence of ocular disorders (three lung cancer studies): 17.8%

COc1cc2ncnc(Nc3ccc(F)c(Cl)c3)c2cc1OCCCN1CCOCC1 [Gefitinib]
Mentions of (ocular toxicity issues) (full list, wrapped over lines: eye irritation, eye pain, corneal erosion/ulcer, aberrant eyelash growth, corneal membrane sloughing, and ocular ischemia/hemorrhage): Mentions of eye irritation, eye pain, corneal erosion/ulcer, aberrant eyelash

Cc1cn(-c2cc(NC(=O)c3ccc(C)c(Nc4nccc(-c5cccnc5)n4)c3)cc(C(F)(F)F)c2)cn1 [Nilotinib]
Frequency class of vision impairment, vision blurred, visual acuity reduced, photopsia, eye irritation (in vivo): Uncommon: vision impairment, vision blurred, visual acuity reduced, photopsia,

CC(=O)Nc1cccc(-n2c(=O)n(C3CC3)c(=O)c3c(Nc4ccc(I)cc4F)n(C)c(=O)c(C)c32)c1 [Trametinib]
Incidence of Retinal Veinous Occlusion (4/1,749): halo. Incidence of Retinal Veinous Occlusion was 0.2% (4/1,749).
Incidence of Retinal Pigment Epithelial Detachment (14/1,749): Incidence of Retinal Pigment Epithelial Detachment was 0.8% (14/1,749).
Mentions (ocular toxicity issues) (full list, wrapped over lines: blurry vision, dry eye, transient blindness, eye floaters, and visual halo): Mentions blurry vision, dry eye, transient blindness, eye floaters, and visual

COc1cc2c(Nc3ccc(Br)cc3F)ncnc2cc1OCC1CCN(C)CC1 [Vandetanib]
Blurry vision (corneal opacities) (No cohort information): Blurry vision (corneal opacities) 9%. No cohort information.

CCCS(=O)(=O)Nc1ccc(F)c(C(=O)c2c[nH]c3ncc(-c4ccc(Cl)cc4)cc23)c1F [Vemurafenib]
Mentions (ocular toxicity issues) (in vivo): Mentions retinal vein occlusion, uveitis, blurry vision, iritis, and photophobia

Panitimumab
Conjunctivitis (in 463 patients): 4%
Eye/eyelid irritation (in 463 patients): 1%
increased lacrimation (in 463 patients): increased lacrimation (2%), in 463 patients
ocular hyperemia (in 463 patients): 3%

Pertuzumab
Mentions (ocular toxicity issues) (in vivo): Mentions increased lacrimation

Rituximab
Mentions (ocular toxicity issues) (in vivo): Mentions uveitis and optic neuritis
